The results in this text go back to patent US10940139B2, “Compounds that interact with the Ras superfamily for the treatment of cancers, inflammatory diseases, rasopathies, and fibrotic disease” (Shy Therapeutics LLC, priority 2017, dated 2021).

Chain of KRas G12D/Q61H double mutant (P01116-2 other isoform, or with tags, fused parts or gaps G12D/Q61H): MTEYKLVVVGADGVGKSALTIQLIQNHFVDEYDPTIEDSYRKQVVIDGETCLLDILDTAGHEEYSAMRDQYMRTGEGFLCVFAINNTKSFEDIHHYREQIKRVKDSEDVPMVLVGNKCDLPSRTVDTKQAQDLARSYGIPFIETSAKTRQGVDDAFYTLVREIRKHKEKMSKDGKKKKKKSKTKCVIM

One experiment addresses KRas G12D/Q61H double mutant (Homo sapiens (Human), UniProt P01116, G12D/Q61H). Description: Ras GTP binding domain inhibition assay (labeled GTP). To be noted: 20 μM compound; KRas G12D/Q61H double mutant; read-out: % Inhibition at 20 μM of K-Ras mutant and wild-type protein, KRas G12D Q61H. As for the experimental part: Buffer-I: • 50 mM Tris, pH 7.5 • 150 mM NaCl (optional) • 1 mM MgCl2 • 1 mM DTT. • KRas G12D mutant protein was expressed as a His-tagged protein. Purified His-KRas G12D protein was diluted in buffer-I to a final concentration of 3-10 μg/ml. • 200 μl of the diluted His-KRas G12D protein was added to a nickel coated 96 well plate and incubated overnight at 4° C. • The next day, wells were washed 3× in 200 μl of Buffer-I. • Then 200 μl of Buffer-I were added to each well in the presence of 1% DMSO. • Tested compounds were added to the protein-coated wells at a concentration of 20 μM, and incubated for 3 hours at room temperature. While performing IC50 measurements a serial dilution of all tested concentrations was prepared.
Then 22 μl of Cy3-GTP or Cy5-GTP was added to each well. The labeled GTP was incubated for 45 min. at room temperature. • Following GTP incubation, wells were washed 3× in Buffer-I, and 200 μl of Buffer-I were added to each well. • Following washes, the amount of bound labeled-GTP was measured with an Eppendorf AF2200 plate reader.
By substituting KRas G12D mutant protein with KRas G12C mutant, KRas wild type, KRas Q61H mutant, KRas G12D/Q61H double mutant or KRas G12C/Q61H double mutant under the assay conditions described above, KRas G12C mutant KRas wild type, KRas Q61H mutant, KRas G12D/Q61H double mutant and KRas G12C/Q61H double mutant inhibition, respectively, were each determined.
As for `Cc1nc(CN(C)CC23CC4CC(CC(C4)C2)C3)oc1C`, the inhibition at 20 µM was in the range of 1 to 25%.

As for `Cc1ccc(OC(C)C(=O)Nc2ccccc2S(=O)(=O)NC(C)(C)C)c(Br)c1` (centres unmarked), the inhibition at 20 µM was 1 to 25%.

Consider `CCOC(=O)c1ccc2c(c1)nc(C1CCN(S(=O)(=O)c3cccs3)CC1)n2CC`, for which the inhibition at 20 µM lay in the range of 25 to 50%.

In the case of `CCCCN1CC(c2nc3ccccc3n2CCCCOc2c(C)cccc2C)CC1=O` (centres unmarked), the inhibition at 20 µM fell in the range of 1 to 25%.

Take `CCOC(=O)c1ccc2c(c1)n(Cc1occc1C(=O)OC)c(=O)n2CC`: the inhibition at 20 µM is 1 to 25%.

`COc1ccc(-c2cc(NC(=O)C3CC(=O)N(C(C)c4ccccc4)C3)ccc2OC)cc1` (centres unmarked): the inhibition at 20 µM lay in the range of 1 to 25%.

On to `CCOC(=O)c1c(-c2ccc(C)cc2)csc1NC(=O)CN(C)CC(=O)NC1CCC(O)CC1` (centres unmarked), for which the inhibition at 20 µM was in the range of 25 to 50%.

`COC(=O)c1c(CN(C)Cc2nccn2CC(F)(F)F)nc2ccccc2c1-c1ccccc1`: the inhibition at 20 µM was in the range of 25 to 50%.

Regarding `CCc1ccc(C(=O)c2cc3ccccc3o2)s1`, the inhibition at 20 µM was 25 to 50%.

For the molecule `COCCCOC1(CSc2nnc(COc3cc(C)ccc3C)o2)CCCC1`, the inhibition at 20 µM lay in the range of 25 to 50%.

For `COc1cc(CN(C)C(=O)Cc2ccc(Br)cc2)ccc1OCc1ccccc1`, the inhibition at 20 µM was 1 to 25%.

With `Cc1ccc(Sc2ccc(S(=O)(=O)NC3CCCC3)cc2)cc1C`, the inhibition at 20 µM is 1 to 25%.

With `CCc1ccccc1OCC(=O)N1N=C(c2ccccc2)CC1(O)C(F)(F)F` (centres unmarked), the inhibition at 20 µM lay within 25 to 50%.

For the molecule `COCCn1c(SC(C)c2nc(-c3cccnc3)no2)nc2cc(Cl)ccc2c1=O` (centres unmarked), the inhibition at 20 µM was in the range of 25 to 50%.

Still in this experiment, the particulars now being: 20 μM compound; read-out: % Inhibition at 20 μM KRas G12D Q61H.
Regarding `Cc1nc(-c2ccccn2)nc(NC(C)CO)c1C` (centres unmarked), the inhibition at 20 µM was in the range of 1 to 25%.

Turning to `FC(F)(F)c1ccnc(N2CCN(CCc3ccncc3)CC2)n1`, the inhibition at 20 µM fell in the range of 25 to 50%.

For `Cc1cnc(-c2ccccn2)nc1NC(=O)COCc1ccc(C#N)cc1` [drawing 2815], the inhibition at 20 µM lay in the range of 25 to 50%.

`COc1cccc(OCCn2c(CN3CCOCC3)nc3ccccc32)c1`: the inhibition at 20 µM is 1 to 25%.

For the molecule `Cc1ccc(NC(=O)c2sc3nc(-c4ncccn4)[nH]c(=O)c3c2C)c(C)c1`, the inhibition at 20 µM was in the range of 1 to 25%.

For the molecule `Nc1nc(O)c2scc(C(=O)N3CCN(c4ccncc4)CC3)c2n1`, the inhibition at 20 µM lay in the range of 25 to 50%.

For the molecule `Nc1nc(-c2ccccn2)nc2scc(-c3ccccc3)c12` [drawing 2822], the inhibition at 20 µM lay in the range of 1 to 25%.

In the case of `Cc1ccc(CN(C(=O)c2cc(-c3ccccc3Cl)[nH]n2)C2CC2)o1`, the inhibition at 20 µM was 1 to 25%.

For `Cc1nc(-c2ccccn2)nc(NCCS(C)(=O)=O)c1C`, the inhibition at 20 µM fell in the range of 25 to 50%.

As to `CCOCCC1CCN(C(=O)c2csc3c(O)nc(-c4ccccn4)nc23)CC1` [drawing 2676], the inhibition at 20 µM fell in the range of 51 to 75%.

For `CC(C)CCS(=O)(=O)CC(=O)Nc1nnc(-c2ccccn2)[nH]1`, the inhibition at 20 µM was in the range of 25 to 50%.

Consider `O=c1nc(-c2ccccn2)[nH]c2scc(-c3ccco3)c12`, for which the inhibition at 20 µM lay in the range of 25 to 50%.

In the case of `O=c1[nH]c(-c2ccnc(Oc3ccccc3Cl)c2)nc2ccsc12`, the inhibition at 20 µM lay in the range of 1 to 25%.

For the molecule `COc1ccc(CCNC(=O)c2cc(S(=O)(=O)C3CCCCCC3)ccc2OC)cc1OC`, the inhibition at 20 µM lay within 25 to 50%.

In the case of `O=C1NCCCC1Nc1cc(C(F)(F)F)nc(-c2ccccn2)n1` (centres unmarked), the inhibition at 20 µM was in the range of 1 to 25%.

`CCc1noc(CNc2cc(C(=O)OC)cc(C(F)(F)F)c2)n1`: the inhibition at 20 µM lay in the range of 25 to 50%.

Consider `Cc1nc(-c2ccccn2)sc1C(=O)NCCNc1cnccn1`, for which the inhibition at 20 µM was 25 to 50%.

In the case of `N#Cc1ccc(C2(C(=O)Nc3ccnc(-c4ccccn4)n3)CCCC2)cc1`, the inhibition at 20 µM lay in the range of 25 to 50%.

`CCN(Cc1ccc(S(=O)(=O)N(C)C)o1)c1ccccc1`: the inhibition at 20 µM is 25 to 50%.

With `CC(c1nc(N)nc(N(C)C)n1)N1CCN(c2cccc(C(F)(F)F)c2)CC1` (centres unmarked), the inhibition at 20 µM lay in the range of 1 to 25%.

For the molecule `O=C(c1ccc(COc2ccccc2)o1)N1CCCc2ccc(F)cc21`, the inhibition at 20 µM is 25 to 50%.

Consider `C=CCNC(=O)CN1CCOC(c2nc(-c3ccccc3)cs2)C1` (centres unmarked), for which the inhibition at 20 µM lay within 1 to 25%.

On to `CC(C)CCC(=O)Nc1nnc(-c2ccccn2)[nH]1`, for which the inhibition at 20 µM lay in the range of 25 to 50%.

Turning to `O=C(NCC(=O)N1CCN(C2CC3CCC2C3)CC1)c1ccccn1` (centres unmarked), the inhibition at 20 µM is 25 to 50%.

In the case of `Cc1noc(C)c1CNc1ccccc1Cc1ccccc1`, the inhibition at 20 µM is 25 to 50%.

`O=C(c1csc(-c2ncccn2)n1)N1CCC(c2ccc(O)cc2)CC1`: the inhibition at 20 µM lay within 1 to 25%.

For `Cc1nc(-c2ccccn2)[nH]c(=O)c1CCO`, the inhibition at 20 µM lay in the range of 25 to 50%.

On to `CC(OCC1CC1)C(=O)Nc1nnc(-c2ccccn2)[nH]1` (centres unmarked), for which the inhibition at 20 µM lay within 25 to 50%.

Regarding `FC(F)(F)c1csc2nc(-c3ccccn3)nc(N3CCOCC3)c12` [drawing 2741], the inhibition at 20 µM lay within 1 to 25%.

As for `CC(C)COC(C)c1noc(CN(Cc2ccccc2O)C(C)c2ccccc2)n1` (centres unmarked), the inhibition at 20 µM is 1 to 25%.

With `O=C(Nc1nnc(-c2ccccn2)[nH]1)c1cccc(Nc2ncccn2)c1`, the inhibition at 20 µM fell in the range of 1 to 25%.

`COc1ccccc1N1CCN(C(=O)c2csc3c(O)nc(-c4ccccn4)nc23)CC1` [drawing 2712]: the inhibition at 20 µM lay in the range of 25 to 50%.

As for `COC(=O)c1ccc2c(=O)[nH]c(-c3ccccn3)nc2c1`, the inhibition at 20 µM lay within 25 to 50%.

As for `O=C(c1cnc(-c2ccccc2)s1)N1CCC(c2ccccc2)CC1`, the inhibition at 20 µM fell in the range of 25 to 50%.

For `CCc1cc(NNC(=O)C2CC2)nc(-c2ccccn2)n1`, the inhibition at 20 µM was in the range of 1 to 25%.

On to `O=S(=O)(c1ccccc1)N(CCOc1cccc(Cl)c1)c1nccs1`, for which the inhibition at 20 µM fell in the range of 25 to 50%.

For the molecule `O=C(c1ccc(COc2ccccc2F)o1)N1CCOc2ccccc21`, the inhibition at 20 µM is 1 to 25%.

With `CN(Cc1nnc(-c2ccccc2)o1)Cc1ccccc1N1CCCC1`, the inhibition at 20 µM fell in the range of 1 to 25%.

`COc1cccc(OCCn2c(CN3CCCCC3)nc3ccccc32)c1` [drawing 3032]: the inhibition at 20 µM lay within 25 to 50%.

Take `Cc1ccc(OCCSc2nnc(C(C)Oc3ccc(F)cc3)o2)cc1` (centres unmarked): the inhibition at 20 µM fell in the range of 25 to 50%.

On to `FC(F)(F)c1ccnc(N2CCCC2c2cccs2)n1` (centres unmarked), for which the inhibition at 20 µM was 1 to 25%.

Turning to `O=c1[nH]c(-c2cnccn2)nc2ccccc12`, the inhibition at 20 µM is 1 to 25%.

Still in this experiment, the particulars now being: 20 μM; read-out: KRas G12D Q61H % Inh.
With `Cc1nc(-c2ccccn2)nc(O)c1CCC(=O)NCCc1cccs1` [drawing 2595], the inhibition at 20 µM lay within 25 to 50%.

As for `O=C(COc1ccc2c(c1)CCC2)Nc1nnc(-c2ccccn2)[nH]1` [drawing 2526], the inhibition at 20 µM is 51 to 75%.

Regarding `O=C(COc1ccc(F)cc1F)Nc1nnc(-c2ccccn2)[nH]1` [drawing 2458], the inhibition at 20 µM was 51 to 75%.

As for `O=C(CCNC(=O)c1ccco1)Nc1nnc(-c2ccccn2)[nH]1` [drawing 2503], the inhibition at 20 µM was 51 to 75%.

`O=C(COCc1ccccc1Cl)Nc1nnc(-c2ccccn2)[nH]1` [drawing 2519]: the inhibition at 20 µM lay in the range of 51 to 75%.

For `O=C(CCc1c[nH]c2ccccc12)Nc1nnc(-c2ccccn2)[nH]1` [drawing 2471], the inhibition at 20 µM fell in the range of 51 to 75%.

With `O=C(Nc1nnc(-c2ccccn2)[nH]1)c1csc(-c2ccoc2)n1`, the inhibition at 20 µM is 76 to 100%.

For `O=C(Cn1cnc2ccccc2c1=O)Nc1nc(-c2ccccn2)cs1` [drawing 2574], the inhibition at 20 µM lay within 25 to 50%.

As to `CN(CC(=O)N1CCCc2c(O)nc(-c3ccccn3)nc21)S(=O)(=O)c1ccccc1` [drawing 2641], the inhibition at 20 µM fell in the range of 1 to 25%.

For the molecule `CC(OCc1ccccc1)C(=O)Nc1nnc(-c2ccccn2)[nH]1` (centres unmarked) [drawing 2516], the inhibition at 20 µM is 51 to 75%.

As for `Cn1cc(-c2nc(C(=O)Nc3nnc(-c4ccccn4)[nH]3)cs2)cn1` [drawing 2474], the inhibition at 20 µM fell in the range of 76 to 100%.

In the case of `O=C(Nc1nnc(-c2ccccn2)[nH]1)C1=NOC(c2ccccc2)C1` (centres unmarked) [drawing 2544], the inhibition at 20 µM is 51 to 75%.

`CS(=O)(=O)c1cccc(C(=O)Nc2nnc(-c3ccccn3)[nH]2)c1`: the inhibition at 20 µM lay in the range of 51 to 75%.

On to `O=S(=O)(Oc1cc(C(F)(F)F)cc(C(F)(F)F)c1)N1CCc2ccccc2C1` [drawing 2627], for which the inhibition at 20 µM fell in the range of 51 to 75%.

As to `CN(CC(=O)Nc1nnc(-c2ccccn2)[nH]1)Cc1ccccc1` [drawing 2537], the inhibition at 20 µM is 51 to 75%.

Regarding `COC(=O)c1cc(NC(=O)CCc2c(C)nc(-c3ccccn3)nc2O)ccc1Cl` [drawing 2600], the inhibition at 20 µM was 51 to 75%.

Take `O=C(Nc1nnc(-c2ccccn2)[nH]1)c1ccc(OCC2CC2)cc1` [drawing 2522]: the inhibition at 20 µM was in the range of 51 to 75%.

As for `O=C(Nc1nc(-c2ccccn2)cs1)C1CC(=O)N(c2ccc3c(c2)OCCO3)C1` (centres unmarked) [drawing 2575], the inhibition at 20 µM lay in the range of 51 to 75%.

On to `CC(C)c1noc(CCC(=O)Nc2nnc(-c3ccccn3)[nH]2)n1` [drawing 2486], for which the inhibition at 20 µM was in the range of 51 to 75%.

The experiment is the same for the next values; noted with them: at 20 μM; read-out: KRas G12D Q61H % Inh.
As to `O=C(c1csc2c(O)nc(-c3ccccn3)nc12)N1CCNC(c2ccc(Cl)cc2)C1` (centres unmarked) [drawing 3843], the inhibition at 20 µM is 25 to 50%.

Staying with this experiment, now noted: read-out: KRas G12D Q61H IC50.
As to `O=C(CCc1c[nH]c2ccccc12)Nc1nnc(-c2ccccn2)[nH]1` [drawing 2471], the IC50 (usually the midpoint of a concentration-inhibition curve) is below 5 µM.
